Assays:
[1] = system: Human immunodeficiency virus 1; assay type: functional, organism-based; details: Human immunodeficiency virus 1, MT4, 120 h
[2] = system: Human immunodeficiency virus 1; assay: Antiviral activity against NNRTI-resistant HIV-1 harboring RT E138K mutant infected in human MT4 cells assessed as protection against virus-induced cytopathic effect incubated for 5 days by MTT assay; assay type: functional, organism-based; details: Human immunodeficiency virus 1, MT4, 120 h
in vitro [3] = details: human, MT4 cells
Description: Selectivity index, ratio of CC50 for human MT4 cells to EC50 for wild type HIV-1 IIIB infected in human MT4 cells

[4] = molecular target: Human immunodeficiency virus type 1 reverse transcriptase (Human immunodeficiency virus 1, UniProt Q72547); assay: Inhibition of wild type HIV-1 Reverse transcriptase incubated for 1 hrs by ELISA analysis
[5] = system: Human immunodeficiency virus 1; assay: Antiviral activity against NNRTI-resistant HIV-1 harboring RT K103N mutant infected in human MT4 cells assessed as protection against virus-induced cytopathic effect incubated for 5 days by MTT assay; assay type: functional, organism-based; details: Human immunodeficiency virus 1, MT4, 120 h
[6] = system: Human immunodeficiency virus 1; assay type: functional, organism-based; details: Human immunodeficiency virus 1, MT4, 120 h; remark: listed apart in the source
in vitro [7] = details: human, MT4 cells; remark: listed apart in the source
Description: Selectivity index, ratio of CC50 for human MT4 cells to EC50 for HIV-2 ROD infected in human MT4 cells

[8] = system: Human immunodeficiency virus 2; assay: Antiviral activity against HIV-2 ROD infected in human MT4 cells assessed as protection against virus-induced cytopathic effect incubated for 5 days by MTT assay; assay type: functional, organism-based; details: Human immunodeficiency virus 2, ROD, MT4, 120 h
[9] = Cytotoxicity against human MT4 cells assessed as reduction in cell viability measured after 5 days by MTT assay; assay type: toxicity, cell-based; details: time 5 day
[10] = system: Human immunodeficiency virus 1; assay: Antiviral activity against NNRTI-resistant HIV-1 harboring RT L100I mutant infected in human MT4 cells assessed as protection against virus-induced cytopathic effect incubated for 5 days by MTT assay; assay type: functional, organism-based; details: Human immunodeficiency virus 1, MT4, 120 h
[11] = system: Human immunodeficiency virus 1; assay: microbe, parasite or virus in culture; details: Human immunodeficiency virus 1, IIIB, MT4, 120 h
Description: Antiviral activity against wild type HIV-1 IIIB infected in human MT4 cells assessed as protection against virus-induced cytopathic effect incubated for 5 days by MTT assay

[12] = system: Human immunodeficiency virus 1; assay type: functional, organism-based; details: Human immunodeficiency virus 1, MT4, 120 h; remark: listed apart in the source
[13] = system: Human immunodeficiency virus 1; assay type: functional, organism-based; details: Human immunodeficiency virus 1, RES056, MT4, 120 h
in vitro [14] = details: human, MT4 cells; remark: listed apart in the source
Description: Selectivity index, ratio of CC50 for human MT4 cells to EC50 for HIV-1 RES056 harboring RT K103N/Y181C mutant infected in human MT4 cells

[15] = system: Human immunodeficiency virus 1; assay: Potency index, ratio of Nevirapine EC50 to test compound EC50 for antiviral activity against NNRTI-resistant HIV-1 harboring RT K103N mutant infected in human MT4 cells assessed as protection against virus-induced cytopathic effect incubated for 5 days by MTT assay; assay type: functional; details: time 5 day
[16] = system: Human immunodeficiency virus 1; assay: Potency index, ratio of Zidovudine EC50 to test compound EC50 for antiviral activity against NNRTI-resistant HIV-1 harboring RT K103N mutant infected in human MT4 cells assessed as protection against virus-induced cytopathic effect incubated for 5 days by MTT assay; assay type: functional; details: time 5 day
[17] = system: Human immunodeficiency virus 1; assay: Potency index, ratio of Efavirenz EC50 to test compound EC50 for antiviral activity against NNRTI-resistant HIV-1 harboring RT K103N mutant infected in human MT4 cells assessed as protection against virus-induced cytopathic effect incubated for 5 days by MTT assay; assay type: functional; details: time 5 day
[18] = system: Human immunodeficiency virus 1; assay: Potency index, ratio of doravirine EC50 to test compound EC50 for antiviral activity against NNRTI-resistant HIV-1 harboring RT K103N mutant infected in human MT4 cells assessed as protection against virus-induced cytopathic effect incubated for 5 days by MTT assay; assay type: functional; details: time 5 day

For `Cc1cc(/C=C/C#N)cc(C)c1Oc1ccnc(Nc2ccc3scnc3c2)n1`, the EC50 [1] was 68 nM, the EC50 [2] was 17 nM and the selectivity ratio (in vitro [3]) was 26700. For the same molecule, the IC50 [4] was 43 nM, the EC50 [5] was 6 nM and the EC50 [6] was 1230 nM. For the same molecule, the selectivity ratio (in vitro [7]) was 7.13, the EC50 [8] was 7040 nM and the CC50 at 120 h [9] was 50200 nM. The EC50 [10] was 29 nM, the EC50 [11] was 2 nM and the EC50 [12] was 1370 nM. For the same molecule, the EC50 [13] was 950 nM and the selectivity ratio (in vitro [14]) was 506.

Molecule `Cc1cc(/C=C/C#N)cc(C)c1Oc1ccnc(Nc2ccc3nsnc3c2)n1` has a selectivity ratio (in vitro [3]) of 2850, an IC50 [4] of 37 nM and a selectivity ratio (in vitro [7]) of 16.4. It also gave an EC50 [8] of 1260 nM, a CC50 at 120 h [9] of 20600 nM and an EC50 [11] of 7 nM. It also gave an EC50 [13] of 560 nM and a selectivity ratio (in vitro [14]) of 37.

Work on `Cc1cc(/C=C/C#N)cc(C)c1Oc1ccnc(Nc2ccc3nccn3c2)n1` yielded an EC50 [1] of 210 nM, an EC50 [2] of 58 nM and a selectivity ratio (in vitro [3]) of 14600. The IC50 [4] was 29 nM, the EC50 [5] was 8 nM and the EC50 [6] was 960 nM. The EC50 [8] was > 28700 nM, the CC50 at 120 h [9] was 28700 nM and the EC50 [10] was 64 nM. For the same molecule, the EC50 [11] was 2 nM, the EC50 [12] was 3910 nM and the EC50 [13] was 1450 nM. The selectivity ratio (in vitro [14]) was 20.

Work on `Cc1cc(/C=C/C#N)cc(C)c1Oc1ccnc(Nc2ccc3c(c2)OCO3)n1` yielded a selectivity ratio (in vitro [3]) of 5260, an IC50 [4] of 26 nM and a selectivity ratio (in vitro [7]) of 4.98. For the same molecule, the EC50 [8] was 8200 nM, the CC50 at 120 h [9] was 40800 nM and the EC50 [11] was 8 nM. The EC50 [13] was 2220 nM and the selectivity ratio (in vitro [14]) was 18.

In the case of `Cc1cc(/C=C/C#N)cc(C)c1Oc1ccnc(Nc2ccc3c(c2)NC(=O)C3)n1`, the EC50 [1] is reported as 72 nM, the EC50 [2] is reported as 46 nM and the selectivity ratio (in vitro [3]) is reported as > 27600. It also gave an IC50 [4] of 53 nM, an EC50 [5] of 4 nM and an EC50 [6] of 14400 nM. The EC50 [8] was > 50300 nM, the CC50 at 120 h [9] was > 50300 nM and the EC50 [10] was 54 nM. The EC50 [11] was 2 nM, the EC50 [12] was > 50300 nM and the EC50 [13] was 33700 nM. For the same molecule, the selectivity ratio (in vitro [14]) was > 1.

With `Cc1cc(/C=C/C#N)cc(C)c1Oc1ccnc(Nc2ccc3nncn3c2)n1` the EC50 [1] was 32 nM, the EC50 [2] was 11 nM and the “Ratio EC50” value [15] was 2747. For the same molecule, the selectivity ratio (in vitro [3]) was 11500, the IC50 [4] was 25 nM and the “Ratio EC50” value [16] was 19. The EC50 [5] was 2 nM, the EC50 [6] was 580 nM and the EC50 [8] was 6140 nM. For the same molecule, the CC50 at 120 h [9] was 22000 nM, the EC50 [10] was 9 nM and the “Ratio EC50” value [17] was 50. For the same molecule, the EC50 [11] was 2 nM, the “Ratio EC50” value [18] was 5 and the EC50 [12] was 810 nM. The EC50 [13] was 350 nM and the selectivity ratio (in vitro [14]) was 182.

With `Cc1cc(/C=C/C#N)cc(C)c1Oc1ccnc(Nc2ccc3c(c2)C(=O)N(C)C3=O)n1` the selectivity ratio (in vitro [3]) was > 52500, the IC50 [4] was 54 nM and the selectivity ratio (in vitro [7]) was > 1.78. For the same molecule, the EC50 [8] was 165000 nM, the CC50 at 120 h [9] was > 294000 nM and the EC50 [11] was 6 nM. The EC50 [13] was 4670 nM and the selectivity ratio (in vitro [14]) was > 63.

For `Cc1cc(/C=C/C#N)cc(C)c1Oc1ccnc(Nc2ccc3c(c2)C(=O)NCC3)n1`, the EC50 [1] was 44 nM, the EC50 [2] was 21 nM and the selectivity ratio (in vitro [3]) was 1220. The IC50 [4] was 46 nM, the EC50 [5] was 11 nM and the EC50 [6] was > 3190 nM. The EC50 [8] was > 3190 nM, the CC50 at 120 h [9] was 3190 nM and the EC50 [10] was 14 nM. The EC50 [11] was 3 nM, the EC50 [12] was > 3190 nM and the EC50 [13] was 1340 nM. It also gave a selectivity ratio (in vitro [14]) of 2.

`Cc1cc(/C=C/C#N)cc(C)c1Oc1ccnc(Nc2ccc3cnsc3c2)n1` gave an EC50 [1] of 48 nM, an EC50 [2] of 14 nM and a selectivity ratio (in vitro [3]) of 4140. The IC50 [4] was 19 nM, the EC50 [5] was 4 nM and the EC50 [6] was 500 nM. For the same molecule, the EC50 [8] was > 10100 nM, the CC50 at 120 h [9] was 10100 nM and the EC50 [10] was 14 nM. For the same molecule, the EC50 [11] was 2 nM, the EC50 [12] was 990 nM and the EC50 [13] was 450 nM. It also gave a selectivity ratio (in vitro [14]) of 22.

`Cc1cc(/C=C/C#N)cc(C)c1Oc1ccnc(Nc2ccc3occc3c2)n1` gave a selectivity ratio (in vitro [3]) of 31100, an IC50 [4] of 55 nM and a selectivity ratio (in vitro [7]) of 4.74. It also gave an EC50 [8] of 45500 nM, a CC50 at 120 h [9] of 216000 nM and an EC50 [11] of 7 nM. For the same molecule, the EC50 [13] was 8590 nM and the selectivity ratio (in vitro [14]) was 25.

In the case of `Cn1c(Cn2ccc(C(F)(F)F)c(Oc3cc(Cl)cc(C#N)c3)c2=O)n[nH]c1=O` [DORAVIRINE], the EC50 [1] is reported as 17 nM, the EC50 [2] is reported as 19 nM and the selectivity ratio (in vitro [3]) is reported as > 6760. The IC50 [4] was 30 nM, the EC50 [5] was 10 nM and the EC50 [6] was 22100 nM. For the same molecule, the EC50 [8] was > 47000 nM, the CC50 at 120 h [9] was > 47000 nM and the EC50 [10] was 8 nM. For the same molecule, the EC50 [11] was 7 nM, the EC50 [12] was 1710 nM and the EC50 [13] was 50 nM. For the same molecule, the selectivity ratio (in vitro [14]) was > 931.

With `Cc1cn([C@H]2C[C@H](N=[N+]=[N-])[C@@H](CO)O2)c(=O)[nH]c1=O` [ZIDOVUDINE] the EC50 [1] was 41 nM, the EC50 [2] was 47 nM and the selectivity ratio (in vitro [3]) was > 186. For the same molecule, the EC50 [5] was 36 nM, the selectivity ratio (in vitro [7]) was > 192 and the EC50 [8] was 39 nM. The CC50 at 120 h [9] was > 7480 nM, the EC50 [10] was 14 nM and the EC50 [11] was 40 nM. For the same molecule, the EC50 [12] was 40 nM, the EC50 [13] was 35 nM and the selectivity ratio (in vitro [14]) was > 215.

— ChEMBL document CHEMBL6087416, “Discovery of novel fused-heterocycle-bearing diarypyrimidine derivatives as HIV-1 potent NNRTIs targeting tolerant region I for enhanced antiviral activity and resistance profile” (Eur J Med Chem, 2025)
